Measurements as given in ChEMBL document CHEMBL1139672, “1,2,3,4-Tetrahydroisoquinolinyl sulfamic acids as phosphatase PTP1B inhibitors” (Bioorg Med Chem Lett, 2006).

Legend:
[1] = target: T1, Tyrosine-protein phosphatase non-receptor type 2 (Homo sapiens, UniProt P17706); experiment: Inhibition of TCPTP
T1 sequence (P17706 whole entry): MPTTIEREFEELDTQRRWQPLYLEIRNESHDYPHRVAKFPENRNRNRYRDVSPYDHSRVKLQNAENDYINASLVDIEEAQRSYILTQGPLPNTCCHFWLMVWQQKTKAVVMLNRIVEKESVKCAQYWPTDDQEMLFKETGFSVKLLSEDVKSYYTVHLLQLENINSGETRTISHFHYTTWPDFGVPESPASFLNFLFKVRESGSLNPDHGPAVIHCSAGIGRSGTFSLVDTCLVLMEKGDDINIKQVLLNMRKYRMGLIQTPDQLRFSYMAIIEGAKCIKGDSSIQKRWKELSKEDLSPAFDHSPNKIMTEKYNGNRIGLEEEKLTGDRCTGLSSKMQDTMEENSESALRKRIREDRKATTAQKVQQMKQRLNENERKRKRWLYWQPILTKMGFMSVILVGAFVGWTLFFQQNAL

[2] = target: T2, Low molecular weight phosphotyrosine protein phosphatase (Homo sapiens, UniProt P24666); experiment: Inhibition of HCPTPA
T2 sequence (P24666 whole entry): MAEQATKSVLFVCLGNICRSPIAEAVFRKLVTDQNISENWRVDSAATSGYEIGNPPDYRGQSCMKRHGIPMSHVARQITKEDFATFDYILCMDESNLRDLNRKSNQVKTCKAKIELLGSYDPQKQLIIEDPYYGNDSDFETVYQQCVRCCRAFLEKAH

[3] = target: Receptor-type tyrosine-protein phosphatase beta (Homo sapiens, UniProt P23467); experiment: Inhibition of HPTP beta
[4] = target: Tyrosine-protein phosphatase non-receptor type 6 (Homo sapiens, UniProt P29350); experiment: Inhibition of SHP1
[5] = target: T3, Tyrosine-protein phosphatase non-receptor type 11 (Homo sapiens, UniProt Q06124); experiment: Inhibition of SHP2
T3 sequence (Q06124 whole entry): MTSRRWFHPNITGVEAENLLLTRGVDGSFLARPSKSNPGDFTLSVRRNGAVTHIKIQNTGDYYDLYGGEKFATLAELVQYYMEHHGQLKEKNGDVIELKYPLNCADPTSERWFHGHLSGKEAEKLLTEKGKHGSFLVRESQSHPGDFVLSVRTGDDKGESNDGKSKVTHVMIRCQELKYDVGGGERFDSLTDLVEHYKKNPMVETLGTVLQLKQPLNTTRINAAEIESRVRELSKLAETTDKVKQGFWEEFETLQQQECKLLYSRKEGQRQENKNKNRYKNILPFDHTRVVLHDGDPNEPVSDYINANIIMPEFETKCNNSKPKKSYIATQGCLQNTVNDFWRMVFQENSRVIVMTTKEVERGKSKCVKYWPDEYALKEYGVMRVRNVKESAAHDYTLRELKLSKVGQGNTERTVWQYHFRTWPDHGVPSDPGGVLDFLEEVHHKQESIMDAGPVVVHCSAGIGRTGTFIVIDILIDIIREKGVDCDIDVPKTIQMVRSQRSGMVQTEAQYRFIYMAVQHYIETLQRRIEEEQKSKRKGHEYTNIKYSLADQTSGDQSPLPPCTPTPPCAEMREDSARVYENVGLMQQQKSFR

[6] = target: Receptor-type tyrosine-protein phosphatase mu (Homo sapiens, UniProt P28827); experiment: Inhibition of HPTP mu
[7] = target: Receptor-type tyrosine-protein phosphatase F (Homo sapiens, UniProt P10586); experiment: Inhibition of LAR
[8] = target: T4, Receptor-type tyrosine-protein phosphatase C (Homo sapiens, UniProt P08575); experiment: Inhibition of CD45
T4 sequence (P08575 whole entry): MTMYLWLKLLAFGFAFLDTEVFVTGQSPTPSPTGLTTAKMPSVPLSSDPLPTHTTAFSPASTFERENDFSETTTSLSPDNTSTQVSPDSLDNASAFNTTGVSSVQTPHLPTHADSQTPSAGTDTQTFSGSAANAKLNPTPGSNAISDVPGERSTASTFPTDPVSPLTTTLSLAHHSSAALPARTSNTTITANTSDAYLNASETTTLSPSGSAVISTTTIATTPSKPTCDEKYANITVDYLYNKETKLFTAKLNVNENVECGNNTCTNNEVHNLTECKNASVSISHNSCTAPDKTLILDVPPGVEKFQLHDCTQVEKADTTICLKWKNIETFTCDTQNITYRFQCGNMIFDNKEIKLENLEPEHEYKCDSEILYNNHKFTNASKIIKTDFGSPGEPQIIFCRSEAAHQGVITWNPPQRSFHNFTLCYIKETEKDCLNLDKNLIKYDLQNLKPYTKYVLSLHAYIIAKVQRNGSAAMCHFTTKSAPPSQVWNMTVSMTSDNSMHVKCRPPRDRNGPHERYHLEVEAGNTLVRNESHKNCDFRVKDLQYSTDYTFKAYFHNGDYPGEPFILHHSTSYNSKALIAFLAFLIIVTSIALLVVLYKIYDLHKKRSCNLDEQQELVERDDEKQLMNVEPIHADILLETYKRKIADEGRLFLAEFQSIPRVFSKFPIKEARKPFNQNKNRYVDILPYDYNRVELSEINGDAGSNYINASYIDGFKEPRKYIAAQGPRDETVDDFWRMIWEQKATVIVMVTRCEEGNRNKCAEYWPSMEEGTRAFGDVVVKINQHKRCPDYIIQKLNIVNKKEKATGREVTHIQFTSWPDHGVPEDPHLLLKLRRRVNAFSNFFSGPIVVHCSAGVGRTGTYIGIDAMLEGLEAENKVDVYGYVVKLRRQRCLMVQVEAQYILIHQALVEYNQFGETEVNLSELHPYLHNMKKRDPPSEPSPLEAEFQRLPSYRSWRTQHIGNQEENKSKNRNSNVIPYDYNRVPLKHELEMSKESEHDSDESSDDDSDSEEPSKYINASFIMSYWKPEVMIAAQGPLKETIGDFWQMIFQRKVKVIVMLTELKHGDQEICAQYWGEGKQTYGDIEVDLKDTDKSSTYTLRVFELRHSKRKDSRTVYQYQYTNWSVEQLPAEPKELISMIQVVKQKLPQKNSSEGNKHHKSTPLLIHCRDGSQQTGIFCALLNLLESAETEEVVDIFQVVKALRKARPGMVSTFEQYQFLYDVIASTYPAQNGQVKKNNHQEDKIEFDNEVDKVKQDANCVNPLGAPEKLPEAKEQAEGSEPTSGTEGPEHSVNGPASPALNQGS

[9] = target: Receptor-type tyrosine-protein phosphatase gamma (Homo sapiens, UniProt P23470); experiment: Inhibition of PTP gamma
[10] = Inhibition of STP1
[11] = target: T1, Tyrosine-protein phosphatase non-receptor type 2; experiment: Inhibition of TC-PTP38
[12] = target: Receptor-type tyrosine-protein phosphatase epsilon (Homo sapiens, UniProt P23469); experiment: Inhibition of HPTP epsilon
Sequence of Receptor-type tyrosine-protein phosphatase epsilon (P23469 whole entry): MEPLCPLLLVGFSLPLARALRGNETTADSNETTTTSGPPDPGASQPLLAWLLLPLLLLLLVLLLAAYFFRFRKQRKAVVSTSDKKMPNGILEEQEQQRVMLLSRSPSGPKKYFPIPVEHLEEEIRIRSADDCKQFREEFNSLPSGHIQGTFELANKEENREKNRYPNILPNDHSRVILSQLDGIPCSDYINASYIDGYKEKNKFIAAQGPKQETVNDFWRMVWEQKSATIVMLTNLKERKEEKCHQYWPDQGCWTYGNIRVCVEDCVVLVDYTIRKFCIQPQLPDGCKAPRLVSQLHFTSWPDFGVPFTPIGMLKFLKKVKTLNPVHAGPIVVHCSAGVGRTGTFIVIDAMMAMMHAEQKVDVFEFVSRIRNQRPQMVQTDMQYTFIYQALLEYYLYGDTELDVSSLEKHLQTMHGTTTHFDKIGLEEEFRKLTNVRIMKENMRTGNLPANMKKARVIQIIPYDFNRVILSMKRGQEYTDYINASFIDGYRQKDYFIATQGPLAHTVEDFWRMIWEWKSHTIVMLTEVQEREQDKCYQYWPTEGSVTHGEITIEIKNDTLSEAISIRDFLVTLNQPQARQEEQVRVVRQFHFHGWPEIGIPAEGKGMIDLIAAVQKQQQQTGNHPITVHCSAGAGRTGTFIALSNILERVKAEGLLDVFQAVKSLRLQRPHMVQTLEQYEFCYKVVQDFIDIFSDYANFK

Sequence of Tyrosine-protein phosphatase non-receptor type 6 (P29350 whole entry): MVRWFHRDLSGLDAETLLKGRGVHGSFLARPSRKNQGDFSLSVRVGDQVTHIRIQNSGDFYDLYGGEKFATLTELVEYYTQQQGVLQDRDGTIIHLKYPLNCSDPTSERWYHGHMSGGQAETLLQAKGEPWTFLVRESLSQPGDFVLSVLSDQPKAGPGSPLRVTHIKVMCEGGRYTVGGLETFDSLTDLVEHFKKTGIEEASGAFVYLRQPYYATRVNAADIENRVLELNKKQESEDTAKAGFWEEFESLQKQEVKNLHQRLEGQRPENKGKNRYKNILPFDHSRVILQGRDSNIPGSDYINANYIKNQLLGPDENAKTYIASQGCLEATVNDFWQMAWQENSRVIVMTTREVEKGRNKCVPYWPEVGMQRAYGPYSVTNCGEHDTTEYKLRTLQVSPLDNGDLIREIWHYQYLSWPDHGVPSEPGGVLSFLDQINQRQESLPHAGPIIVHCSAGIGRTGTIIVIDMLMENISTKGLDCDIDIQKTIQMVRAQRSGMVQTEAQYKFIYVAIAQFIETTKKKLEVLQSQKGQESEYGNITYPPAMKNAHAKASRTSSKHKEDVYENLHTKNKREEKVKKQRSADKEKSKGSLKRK
Sequence of Receptor-type tyrosine-protein phosphatase F (P10586 whole entry): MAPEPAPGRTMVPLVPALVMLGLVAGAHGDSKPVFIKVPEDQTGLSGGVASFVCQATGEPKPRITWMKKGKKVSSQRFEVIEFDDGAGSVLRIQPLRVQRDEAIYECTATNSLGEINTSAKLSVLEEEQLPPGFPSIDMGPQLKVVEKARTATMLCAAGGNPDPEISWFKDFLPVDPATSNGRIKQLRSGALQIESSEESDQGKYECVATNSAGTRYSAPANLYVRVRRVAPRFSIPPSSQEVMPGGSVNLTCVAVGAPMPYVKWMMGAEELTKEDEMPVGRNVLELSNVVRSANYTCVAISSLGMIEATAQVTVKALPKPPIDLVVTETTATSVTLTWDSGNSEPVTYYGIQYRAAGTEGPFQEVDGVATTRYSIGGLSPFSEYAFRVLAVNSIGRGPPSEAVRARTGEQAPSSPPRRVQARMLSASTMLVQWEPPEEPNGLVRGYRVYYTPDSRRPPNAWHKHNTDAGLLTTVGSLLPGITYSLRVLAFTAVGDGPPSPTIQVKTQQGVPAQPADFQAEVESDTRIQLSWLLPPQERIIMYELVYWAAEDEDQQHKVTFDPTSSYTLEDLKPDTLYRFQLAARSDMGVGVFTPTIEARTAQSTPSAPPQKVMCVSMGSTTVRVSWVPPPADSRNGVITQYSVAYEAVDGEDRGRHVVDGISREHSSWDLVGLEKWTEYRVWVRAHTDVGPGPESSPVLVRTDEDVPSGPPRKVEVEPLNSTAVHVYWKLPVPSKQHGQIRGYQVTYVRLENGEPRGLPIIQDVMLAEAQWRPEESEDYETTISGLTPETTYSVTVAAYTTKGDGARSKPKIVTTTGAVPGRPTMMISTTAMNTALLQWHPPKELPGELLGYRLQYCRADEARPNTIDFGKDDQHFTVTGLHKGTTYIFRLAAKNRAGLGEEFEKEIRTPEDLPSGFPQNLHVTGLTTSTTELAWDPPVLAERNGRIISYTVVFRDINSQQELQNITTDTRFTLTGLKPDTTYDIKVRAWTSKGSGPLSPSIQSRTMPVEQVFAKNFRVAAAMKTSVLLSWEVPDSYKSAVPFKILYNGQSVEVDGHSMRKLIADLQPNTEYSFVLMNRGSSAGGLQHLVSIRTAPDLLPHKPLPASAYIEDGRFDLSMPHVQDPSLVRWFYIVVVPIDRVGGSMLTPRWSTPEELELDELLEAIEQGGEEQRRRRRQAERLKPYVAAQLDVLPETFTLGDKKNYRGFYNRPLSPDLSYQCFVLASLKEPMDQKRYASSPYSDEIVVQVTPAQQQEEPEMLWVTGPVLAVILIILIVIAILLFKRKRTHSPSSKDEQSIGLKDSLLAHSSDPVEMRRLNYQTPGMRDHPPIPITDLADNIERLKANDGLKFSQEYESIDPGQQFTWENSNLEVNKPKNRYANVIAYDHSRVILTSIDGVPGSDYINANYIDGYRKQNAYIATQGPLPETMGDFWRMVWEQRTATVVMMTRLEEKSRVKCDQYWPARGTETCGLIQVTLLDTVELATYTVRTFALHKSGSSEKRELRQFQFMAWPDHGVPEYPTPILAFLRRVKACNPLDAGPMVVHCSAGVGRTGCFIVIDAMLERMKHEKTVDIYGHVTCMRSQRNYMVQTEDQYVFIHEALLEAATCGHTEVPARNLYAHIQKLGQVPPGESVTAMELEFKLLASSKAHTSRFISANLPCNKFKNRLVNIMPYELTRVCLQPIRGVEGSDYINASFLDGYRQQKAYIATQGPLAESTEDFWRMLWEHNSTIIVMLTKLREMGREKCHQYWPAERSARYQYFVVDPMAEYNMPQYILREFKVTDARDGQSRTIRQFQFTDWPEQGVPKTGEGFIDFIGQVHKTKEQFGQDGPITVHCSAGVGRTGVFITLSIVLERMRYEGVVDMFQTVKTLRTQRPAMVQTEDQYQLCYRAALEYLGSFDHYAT
Sequence of Receptor-type tyrosine-protein phosphatase mu (P28827 whole entry): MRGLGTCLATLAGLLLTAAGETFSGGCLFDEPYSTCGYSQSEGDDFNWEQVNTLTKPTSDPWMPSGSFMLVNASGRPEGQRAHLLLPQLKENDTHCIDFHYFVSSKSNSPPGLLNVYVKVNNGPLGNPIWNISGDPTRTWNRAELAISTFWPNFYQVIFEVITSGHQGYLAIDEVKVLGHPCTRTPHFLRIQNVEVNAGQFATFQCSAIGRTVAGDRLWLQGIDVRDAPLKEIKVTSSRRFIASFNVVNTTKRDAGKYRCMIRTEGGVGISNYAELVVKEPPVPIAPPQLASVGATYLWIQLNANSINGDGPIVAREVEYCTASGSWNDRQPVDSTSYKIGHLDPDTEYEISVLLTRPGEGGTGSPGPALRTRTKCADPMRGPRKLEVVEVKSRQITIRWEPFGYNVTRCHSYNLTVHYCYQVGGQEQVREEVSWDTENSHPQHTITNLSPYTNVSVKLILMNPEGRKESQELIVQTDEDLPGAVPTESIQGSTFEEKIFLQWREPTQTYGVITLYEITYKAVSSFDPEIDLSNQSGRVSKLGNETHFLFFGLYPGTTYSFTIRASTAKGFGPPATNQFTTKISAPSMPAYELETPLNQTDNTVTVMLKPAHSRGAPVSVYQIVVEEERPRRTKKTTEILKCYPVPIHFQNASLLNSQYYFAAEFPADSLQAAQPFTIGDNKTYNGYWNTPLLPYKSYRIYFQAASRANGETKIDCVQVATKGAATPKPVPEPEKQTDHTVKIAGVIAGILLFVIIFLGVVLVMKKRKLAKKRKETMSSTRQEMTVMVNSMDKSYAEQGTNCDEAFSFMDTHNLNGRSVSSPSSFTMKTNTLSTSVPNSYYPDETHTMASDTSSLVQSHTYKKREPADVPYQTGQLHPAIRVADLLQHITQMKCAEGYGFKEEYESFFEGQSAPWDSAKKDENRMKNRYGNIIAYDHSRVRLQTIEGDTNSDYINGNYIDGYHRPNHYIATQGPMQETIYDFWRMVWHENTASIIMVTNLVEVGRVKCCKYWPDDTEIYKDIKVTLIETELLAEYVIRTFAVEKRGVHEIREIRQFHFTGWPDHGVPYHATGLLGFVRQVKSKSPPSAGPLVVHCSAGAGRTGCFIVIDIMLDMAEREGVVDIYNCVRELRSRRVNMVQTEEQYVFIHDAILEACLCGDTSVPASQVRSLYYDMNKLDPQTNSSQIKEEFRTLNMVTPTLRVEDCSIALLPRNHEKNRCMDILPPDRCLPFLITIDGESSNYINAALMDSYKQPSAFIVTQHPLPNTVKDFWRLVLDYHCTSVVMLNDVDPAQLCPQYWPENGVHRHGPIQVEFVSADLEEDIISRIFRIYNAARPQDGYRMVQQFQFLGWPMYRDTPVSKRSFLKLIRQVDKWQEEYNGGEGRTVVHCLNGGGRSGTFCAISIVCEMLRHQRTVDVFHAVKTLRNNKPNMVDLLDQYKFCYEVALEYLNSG

Work on CNC(=O)[C@@H]1Cc2ccc(NS(=O)(=O)O)cc2CN1C(=O)CCc1cccc(NS(=O)(=O)O)c1 yielded an IC50 [1] of 9.4 µM, an IC50 [2] of 3.1 µM and an IC50 [3] of 20.7 µM. The IC50 [4] was 203 µM, the IC50 [5] was > 500 µM and the IC50 [6] was > 500 µM. For the same compound, the IC50 [7] was > 500 µM, the IC50 [8] was > 500 µM and the IC50 [9] was > 500 µM. For the same compound, the IC50 [10] was 8.1 µM, the IC50 [11] was 9.9 µM and the IC50 [12] was > 500 µM.
